Patent US20260240203A1, “COMPOSITIONS CONTAINING GAMMA-AMINOBUTYRIC ACID AND METHODS FOR IMPROVING COGNITIVE FUNCTIONS, MOOD, AND ALERTNESS” (THE COCA-COLA COMPANY, priority 2023, published 2026)

Legend:
[1] = system: healthy adults; settings: vs placebo; compositive level; single beverage dose
[2] = system: healthy adults; settings: p-value vs placebo; compositive level; single beverage dose; b330

Question: Which results are given for `Cn1c(=O)c2c(ncn2C)n(C)c1=O` [Caffeine, caffeine]?
Answer: accuracy of performance [1]: numerically trends to improve the accuracy of performance, although no significance observed; improve the speed of performance significantly comparing to placebo (p), as printed in the attention paragraph [2]: 0.002
